Source: patent US20230114728A1 (Venatorx Pharmaceuticals, Inc., priority 2019, published 2023)
In brackets after ≈: the same amount, converted by molar mass.

Key:
P. aeruginosa PBP3 = molecular target: T1, P. aeruginosa PBP3 (Pseudomonas aeruginosa, UniProt G3XD46); assay: Bocillin-FL fluorescence polarization competition binding assay, P. aeruginosa PBP3; settings: fluorescence polarization competition binding assay using Bocillin-FL
T1 construct: made in house
In short: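 Binding of boronic acid inhibitors to purified Pseudomonas aeruginosa (PA01) PBP3 was measured by fluorescence polarization competition with Bocillin-FL, a fluorescent penicillin V. Reactions of 80 μl contained 0.75 μM PBP3 and 0.1 μM Bocillin-FL in 50 mM Hepes (pH 8.0), 300 mM NaCl and 5% (v/v) glycerol, in black 384-well plates. FP (Excitation 490 nm, Emission 520 nm) was read for up to 60 minutes. EC50 is the concentration that halves PBP-bound Bocillin-FL.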

E. coli K12 PBP3 = molecular target: T2, E. coli K12 PBP3 (Escherichia coli, UniProt P0AD68); assay: biochemical; assay type: binding
T2 construct: made in house
T2 sequence (P0AD68 1-577): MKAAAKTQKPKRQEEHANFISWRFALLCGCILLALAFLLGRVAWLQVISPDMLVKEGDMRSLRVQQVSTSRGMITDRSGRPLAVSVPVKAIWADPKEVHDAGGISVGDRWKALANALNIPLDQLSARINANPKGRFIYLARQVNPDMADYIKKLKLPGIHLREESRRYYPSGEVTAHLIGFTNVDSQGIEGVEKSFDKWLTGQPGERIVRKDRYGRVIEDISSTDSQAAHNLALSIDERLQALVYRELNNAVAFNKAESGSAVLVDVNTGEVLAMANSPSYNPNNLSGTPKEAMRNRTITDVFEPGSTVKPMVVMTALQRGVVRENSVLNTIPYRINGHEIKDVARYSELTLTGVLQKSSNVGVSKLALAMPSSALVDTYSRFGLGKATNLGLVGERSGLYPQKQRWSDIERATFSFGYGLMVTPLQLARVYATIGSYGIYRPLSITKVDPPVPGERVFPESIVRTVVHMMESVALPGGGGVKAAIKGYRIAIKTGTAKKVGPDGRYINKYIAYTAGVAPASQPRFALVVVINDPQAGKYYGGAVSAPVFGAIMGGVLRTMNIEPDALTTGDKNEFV
In short: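 Fluorescence polarization (ex 490/em 520 nm) competition of inhibitors against Bocillin-FL at 0.1 μM, read up to 60 min. Final PBP levels: E. coli PBP3 1.5 μM; A. baumannii PBP2 2.5 μM, PBP3 0.2 μM in Tris pH 8.0/NaCl/glycerol/Tween 20; N. gonorrhoeae PBP2 […] in Hepes pH 8.0/NaCl/glycerol. EC50 = concentration halving PBP-bound Bocillin-FL.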

[1] = Bocillin-FL fluorescence polarization competition binding assay, A. baumannii PBP3; settings: fluorescence polarization competition binding assay using Bocillin-FL; column 3; read-out: 4. baumannii PBP1a Potency
Excerpt: Example I: Experimental Method for Penicillin-Binding Protein Binding Assays with Bocillin-FL Via Fluorescence Polarization
To determine the ability of boronic acid-based test PBP inhibitors to bind Penicillin Binding Proteins (PBPs), Bocillin-FL (fluorescently-labeled penicillin V; ThermoFisher Scientific) was used in a fluorescence polarization (FP) competition binding assay to assess inhibitor binding to PBP2, PBP3 or PBP4 from Escherichia coli (K12), PBP3 from Pseudomonas aeruginosa (PA01), PBP1a, PBP2 and PBP3 from Acinetobacter baumannii (ATCC 19606), and PBP2 from Neiserria gonorrheae (FA19). PBPs were cloned and purified as described previously (E. coli PBPs, King, D. T, et al., ACS Infectious Diseases 2015, 1, 175-184; P. aeruginosa PBP3, Han et. al., PNAS 2010, 107 (51), 22002-22007; A. baumannii PBPs, Penwell et. al., Antimicrob. Agents Chemother. 2015, 59 (3), 1680-1689; N. gonorrhoeae PBP2, Singh et. al., J Biol. Chem. 2019, 294 (38), 14020-14032). To establish assay conditions for competition binding, enzyme titration/saturation binding experiments were initially performed. Bocillin-FL was prepared at 0.2 μM in a buffer comprised of 50 mM Hepes (pH 8.0), 300 mM NaCl and 5% (v/v) glycerol for reactions with E. coli, P. aeruginosa and N. gonorrhoeae PBPs, and 25 mM Tris (pH 8.0), 200 mM NaCl and 10% (v/v) glycerol and 0.005% (v/v) Tween 20 for reactions with A. baumannii PBPs. Saturation binding was performed by mixing 40 μl of PBP solutions ranging in concentrations from 0-24 μM with 40 μl of the 0.2 μM Bocillin-FL solution, in individual wells of a black 384-well microplate. FP was measured immediately upon mixing (Excitation, 490 nm; Emission, 520 nm; g-factor, 0.96), using a Cytation3 (BioTek) microplate reader and measured continuously for up to 120 minutes. […] The competition binding assay (80 μl final volume) was validated using beta-lactams and PBPs at final concentrations of: 1.5 μM, E. coli PBP3; 0.75 μM, P. aeruginosa PBP3; 1 μM A. baumannii PBP1a; 2.5 μM A. baumannii PBP2; 0.2 μM A. baumannii PBP3; and […] N. gonorrhoeae PBP2. Bocillin-FL was at 0.1 μM (0.05 μM with A. baumannii PBP1a) and beta-lactam concentrations ranged from 0-1000 μM. […] Bocillin-FL was added and the FP immediately measured for up to 60 minutes (90 minutes for E. coli PBP2). […] The beta-lactam potency was reported as the concentration of beta-lactam required to reduce the amount of PBP bound-Bocillin-FL by 50% (EC50). […] Binding assays for boronic acid PBP inhibitors were performed in an identical fashion for the respective PBPs

[2] = test system: K. pneumoniae UMM producing SHV-5 and KPC-2; assay: Broth microdilution MIC in CAMHB; assay type: cell-based; settings: Klebsiella pneumoniae, read-out: Minimum Inhibitory Concentration, K. pneumoniae UMM
In short: (§1)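 MIC, read by eye, is the lowest compound concentration giving no bacterial growth after 16-20 h at 37° C. Test compounds are serially diluted 2-fold in CAMHB and seeded with 2-8×10^5 CFU/mL of bacteria taken from a 3-5 h shaking culture, following CLSI methods.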

E. coli 901C = assay: Broth microdilution MIC in CAMHB; assay type: cell-based; settings: Escherichia coli; E. coli 901C (hyper-permeable); MHB; read-out: Minimum Inhibitory Concentration, E. coli 901C
In short: as §1

P. aeruginosa ATCC 35151 = assay: Broth microdilution MIC in CAMHB; assay type: cell-based; settings: Pseudomonas aeruginosa, ATCC35151; MHB; hyper-permeable strain; read-out: Minimum Inhibitory Concentration, P. aeruginosa ATCC 35151
In short: as §1

[3] = test system: K. pneumoniae SI-117 producing VIM-1; assay: Broth microdilution MIC in CAMHB; assay type: cell-based; settings: Klebsiella pneumoniae, read-out: Minimum Inhibitory Concentration, K. pneumoniae SI-117
In short: as §1

A. baumannii ATCC 19606 = assay: Broth microdilution MIC in CAMHB; assay type: cell-based; settings: Acinetobacter baumannii, ATCC19606; MHB; read-out: Minimum Inhibitory Concentration, A. baumannii ATCC 19606
In short: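 Colonies from cation-adjusted Mueller Hinton agar are grown in broth (3-5 h, 37° C), adjusted by OD600, and added at 2-8×10^5 CFU/mL to 2-fold compound dilutions. After 16-20 h at 37° C, the lowest concentration without growth is taken as MIC.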

[4] = test system: P. aeruginosa (ΔmexAB-oprM); assay: Broth microdilution MIC in CAMHB; assay type: cell-based; settings: Pseudomonas aeruginosa, read-out: Minimum Inhibitory Concentration, P. aeruginosa ΔmexAB-OprM
In short: as §1

E. coli ATCC 25922 = assay: Broth microdilution MIC in CAMHB; assay type: cell-based; settings: Escherichia coli, ATCC25922; E. coli ATCC 25922; MHB; read-out: Minimum Inhibitory Concentration, E. coli 25922
In short: as §1

P. aeruginosa ATCC 27853 = assay: Broth microdilution MIC in CAMHB; assay type: cell-based; settings: Pseudomonas aeruginosa, ATCC27853; MHB; read-out: Minimum Inhibitory Concentration, P. aeruginosa ATCC 27853
In short: as §1

E. coli AG100A = assay: Broth microdilution MIC in CAMHB; assay type: cell-based; settings: Escherichia coli, read-out: Minimum Inhibitory Concentration, E. coli AG100A
In short: as §1

E. coli AG100 = assay: Broth microdilution MIC in CAMHB; assay type: cell-based; settings: Escherichia coli; E. coli AG100 (wild-type parent); MHB; read-out: Minimum Inhibitory Concentration, E. coli AG100
In short: as §1

[5] = test system: K. pneumoniae 848844 producing SHV-11 and KPC-2; assay: Broth microdilution MIC in CAMHB; assay type: cell-based; settings: Klebsiella pneumoniae, read-out: Minimum Inhibitory Concentration, K. pneumoniae 848844
In short: as §1

E. coli D22 = assay: Broth microdilution MIC in CAMHB; assay type: cell-based; settings: Escherichia coli; E. coli D22 (hyper-permeable); MHB; read-out: Minimum Inhibitory Concentration, E. coli D22
In short: as §1

T1 sequence (G3XD46 whole entry): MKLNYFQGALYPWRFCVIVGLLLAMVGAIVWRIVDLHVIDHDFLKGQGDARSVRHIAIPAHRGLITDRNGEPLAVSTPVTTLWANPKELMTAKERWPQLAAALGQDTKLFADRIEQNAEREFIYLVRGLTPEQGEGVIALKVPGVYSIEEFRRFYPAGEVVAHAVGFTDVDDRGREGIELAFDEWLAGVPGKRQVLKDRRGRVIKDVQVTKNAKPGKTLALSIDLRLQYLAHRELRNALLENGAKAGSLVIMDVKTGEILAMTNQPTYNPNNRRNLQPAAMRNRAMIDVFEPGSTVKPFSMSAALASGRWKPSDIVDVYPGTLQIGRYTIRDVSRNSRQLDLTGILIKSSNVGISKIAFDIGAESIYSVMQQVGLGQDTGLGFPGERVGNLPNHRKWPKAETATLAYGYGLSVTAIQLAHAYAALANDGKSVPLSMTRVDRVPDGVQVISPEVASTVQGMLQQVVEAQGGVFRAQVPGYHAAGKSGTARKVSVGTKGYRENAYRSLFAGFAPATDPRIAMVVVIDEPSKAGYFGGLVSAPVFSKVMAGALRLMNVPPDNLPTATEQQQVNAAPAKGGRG

For NCCCN1CCN(C(=O)N[C@@H](C(=O)N[C@H]2Cc3cccc(C(=O)O)c3OB2O)c2ncc(O)cc2F)C(=O)C1=O [Example 13, (R)-3-((R)-2-(4-(3-aminopropyl)-2,3-dioxopiperazine-1-carboxamido)-2-(3-fluoro-5-hydroxypyridin-2-yl)acetamido)-2-hydroxy-3,4-dihydro-2H-benzo[e][1,2]oxaborinine-8-carboxylic acid], the “P. aeruginosa PBP3 Potency” value (P. aeruginosa PBP3) was “D (D represents a potency <10 μM)”, the EC50 (E. coli K12 PBP3) was under 30 µM and the EC50 [1] was under 10 µM. The MIC [2] was 8 to 16 µg/mL (≈ 14 to 28 µM), the MIC (E. coli 901C) was 0.5 to 1 µg/mL (≈ 0.874 to 1.75 µM) and the MIC (P. aeruginosa ATCC 35151) was under 0.25 µg/mL. The MIC [3] was 8 to 16 µg/mL (≈ 14 to 28 µM), the MIC (A. baumannii ATCC 19606) was over 128 µg/mL and the MIC [4] was 2 to 4 µg/mL (≈ 3.49 to 6.99 µM). For the same compound, the MIC (E. coli ATCC 25922) was 8 to 16 µg/mL (≈ 14 to 28 µM), the MIC (P. aeruginosa ATCC 27853) was 32 to 64 µg/mL (≈ 55.9 to 112 µM) and the MIC (E. coli AG100A) was 0.5 to 1 µg/mL (≈ 0.874 to 1.75 µM). It also gave an MIC (E. coli AG100) of 8 to 16 µg/mL (≈ 14 to 28 µM), an MIC [5] of 32 to 64 µg/mL (≈ 55.9 to 112 µM) and an MIC (E. coli D22) of 2 to 4 µg/mL (≈ 3.49 to 6.99 µM).
